Assay results: article PMC3472974, “The Bite of the Honeybee: 2-Heptanone Secreted from Honeybee Mandibles during a Bite Acts as a Local Anaesthetic in Insects and Mammals” (PLoS ONE, 2012)
Converted amounts (≈) assume the structure as drawn. Marks after values point to notes of the source that are not given here.

Legend:
[1] = system: isolated rat sciatic nerve; test: tissue or blood; details: for IT50: unit not given in Table 3, seconds per Table 2
Text: The ex vivo studies used both male and female rats weighing between 230 and 250 g. Animals were sacrificed using light anaesthesia with CO2 and cervical dislocation. The sciatic nerve of the rat, consisting of 27,000 sciatic nerve fibres, was isolated in a three-chamber recording bath (Fig. 5b). The sciatic nerves were dissected from the spinal cord to the knee, immersed in oxygenated (O2, 100%) saline solution and cleaned. The composition of the saline was (in mmoles/L): 136 NaCl, 11 glucose, 4.7 KCl, 2.4 CaCl2, 1.1 MgCl2, 1 NaHCO3, 10 HEPES, pH = 7.2). All experiments were performed at a constant temperature, 26.0±1.0°C. […] The nerve was mounted in a three-chambered recording bath made of Plexiglas, which is described elsewhere, [30]. The recording bath consisted of the recording (R in Fig. 5b), perfusion (P) and stimulating (S) chambers, each with a volume of 12 mL. The nCAP (Fig. 5a) was generated by stimulating (1 Hz) the part of the nerve in the stimulating chamber and was recorded in the recording chamber every second using standard electrophysiological methods. The nCAP was monitored throughout the experiment as an indication of the vitality of the nerve fibres in the recording bath. […] Immediately after the nCAP was eliminated, the saline+compound was removed and the nerve was washed out. Then, recovery of the nCAP in normal stagnant saline was monitored for 24 h. It is worth noting that the recording bath is designed in such a way that the chambers with the saline and 2-H (the nerves and the recording electrodes) was shielded from the air by using the cover (c in Fig. 5b) to avoid evaporation of the volatile 2-H. The saline with 2-H was added through a small diameter opening on the cover.
For further data analysis, the amplitude of the nCAPs, estimated from baseline to peak (Fig. 5), were measured at a specific time (every 1.0 s, 1.0 min or 1.0 h) and were expressed as a percentage of the amplitude of the nCAP at t = 0 (which was considered to be 100%). In the neuropharmacological experiments, time t = 0 was considered the time before application of the compound under investigation. […] The data were fitted in the program GraphPad Prism 5.0 using a one-phase exponential decay equation for the IC50. Data were analyzed by one-way ANOVA and Bonferroni’s post hoc tests, when required. Significance was determined using Students t-test or ANOVA as appropriate (p<0.05).

hNav1.6 channels = molecular target: T1, hNav1.6 channels (Homo sapiens, UniProt Q9UQD0); test: Patch-clamp (PatchXpress 7000A) on transfected CHO cells, hNav1.6; format: cell-based; details: CHO cells, n = 6, mean ± SEM, 2-H exposure limited to 3 min
T1 construct: expressed in transfected cells; host or cells: CHO-K1 (ATCC CCL-61)
Text: To test whether 2-H can act by blocking VGNaCs, the PatchXpress 7000A was used. Mammalian CHO (Chinese hamster ovary) transfected with ion hNav1.2 and hNav1.6 channels cDNAs (SCN2A and SCN8A genes) were exposed to 2-H under both tonic and phasic conditions. The mammalian CHO-K1 epithelial embryonic cell line (ATCC number CCL-61) from Cricetulus griseus was obtained from ATCC, Manassas, VA. CHO-K1 cells were transfected with either hNav1.2 or hNav1.6 channel cDNA (SCN2A and SCN8A genes, respectively) and were exposed to 2-H under both tonic and phasic conditions.
The effects of 2-H were evaluated on hNav1.2 at 0.73, 1.46, 2.19, and 2.92 mg/mL and on hNav1.6 channels at 0.1, 0.36, 0.73, and 1.46 mg/mL, with each concentration tested in at least six cells (n = 6). Cells were exposed to each concentration of 2-H and measurements of the inward current were obtained within the first 3 min of exposure. […] Since the PatchXpress has open cell chambers where the testing occurs, there is no way to hermetically seal the experiment.
Based on this analysis, we estimated the IC50.

wax moth larvae (WML) = test: Locomotory pattern of tethered wax moth larvae after injection; format: in vivo, Galleria mellonella; details: large WML
Text: To monitor the constant locomotory pattern of WML, the probe of a force-displacement transducer (FT-03C, Grass Instrument Company, USA), attached to a micromanipulator, was hooked onto the tail of the WML, while the head was carefully pinned to a wax substrate, [14]. The electrical signal generated by the rhythmic force produced during locomotion was amplified and fed to a computer through a data acquisition card interface (Keithley KPCI 3102, Keithley Instruments, Cleveland, OH, USA). Software designed using the facilities of Labview (Labview 5.1, National Instruments USA) permitted analysis of the recorded data.

rat sciatic nerve = details: 80 mM, rat sciatic nerve in vitro; cited from earlier work
[2] = Table 3, 3.41 mg/mL, unit not given in Table 3, s

T1 sequence (Q9UQD0 whole entry): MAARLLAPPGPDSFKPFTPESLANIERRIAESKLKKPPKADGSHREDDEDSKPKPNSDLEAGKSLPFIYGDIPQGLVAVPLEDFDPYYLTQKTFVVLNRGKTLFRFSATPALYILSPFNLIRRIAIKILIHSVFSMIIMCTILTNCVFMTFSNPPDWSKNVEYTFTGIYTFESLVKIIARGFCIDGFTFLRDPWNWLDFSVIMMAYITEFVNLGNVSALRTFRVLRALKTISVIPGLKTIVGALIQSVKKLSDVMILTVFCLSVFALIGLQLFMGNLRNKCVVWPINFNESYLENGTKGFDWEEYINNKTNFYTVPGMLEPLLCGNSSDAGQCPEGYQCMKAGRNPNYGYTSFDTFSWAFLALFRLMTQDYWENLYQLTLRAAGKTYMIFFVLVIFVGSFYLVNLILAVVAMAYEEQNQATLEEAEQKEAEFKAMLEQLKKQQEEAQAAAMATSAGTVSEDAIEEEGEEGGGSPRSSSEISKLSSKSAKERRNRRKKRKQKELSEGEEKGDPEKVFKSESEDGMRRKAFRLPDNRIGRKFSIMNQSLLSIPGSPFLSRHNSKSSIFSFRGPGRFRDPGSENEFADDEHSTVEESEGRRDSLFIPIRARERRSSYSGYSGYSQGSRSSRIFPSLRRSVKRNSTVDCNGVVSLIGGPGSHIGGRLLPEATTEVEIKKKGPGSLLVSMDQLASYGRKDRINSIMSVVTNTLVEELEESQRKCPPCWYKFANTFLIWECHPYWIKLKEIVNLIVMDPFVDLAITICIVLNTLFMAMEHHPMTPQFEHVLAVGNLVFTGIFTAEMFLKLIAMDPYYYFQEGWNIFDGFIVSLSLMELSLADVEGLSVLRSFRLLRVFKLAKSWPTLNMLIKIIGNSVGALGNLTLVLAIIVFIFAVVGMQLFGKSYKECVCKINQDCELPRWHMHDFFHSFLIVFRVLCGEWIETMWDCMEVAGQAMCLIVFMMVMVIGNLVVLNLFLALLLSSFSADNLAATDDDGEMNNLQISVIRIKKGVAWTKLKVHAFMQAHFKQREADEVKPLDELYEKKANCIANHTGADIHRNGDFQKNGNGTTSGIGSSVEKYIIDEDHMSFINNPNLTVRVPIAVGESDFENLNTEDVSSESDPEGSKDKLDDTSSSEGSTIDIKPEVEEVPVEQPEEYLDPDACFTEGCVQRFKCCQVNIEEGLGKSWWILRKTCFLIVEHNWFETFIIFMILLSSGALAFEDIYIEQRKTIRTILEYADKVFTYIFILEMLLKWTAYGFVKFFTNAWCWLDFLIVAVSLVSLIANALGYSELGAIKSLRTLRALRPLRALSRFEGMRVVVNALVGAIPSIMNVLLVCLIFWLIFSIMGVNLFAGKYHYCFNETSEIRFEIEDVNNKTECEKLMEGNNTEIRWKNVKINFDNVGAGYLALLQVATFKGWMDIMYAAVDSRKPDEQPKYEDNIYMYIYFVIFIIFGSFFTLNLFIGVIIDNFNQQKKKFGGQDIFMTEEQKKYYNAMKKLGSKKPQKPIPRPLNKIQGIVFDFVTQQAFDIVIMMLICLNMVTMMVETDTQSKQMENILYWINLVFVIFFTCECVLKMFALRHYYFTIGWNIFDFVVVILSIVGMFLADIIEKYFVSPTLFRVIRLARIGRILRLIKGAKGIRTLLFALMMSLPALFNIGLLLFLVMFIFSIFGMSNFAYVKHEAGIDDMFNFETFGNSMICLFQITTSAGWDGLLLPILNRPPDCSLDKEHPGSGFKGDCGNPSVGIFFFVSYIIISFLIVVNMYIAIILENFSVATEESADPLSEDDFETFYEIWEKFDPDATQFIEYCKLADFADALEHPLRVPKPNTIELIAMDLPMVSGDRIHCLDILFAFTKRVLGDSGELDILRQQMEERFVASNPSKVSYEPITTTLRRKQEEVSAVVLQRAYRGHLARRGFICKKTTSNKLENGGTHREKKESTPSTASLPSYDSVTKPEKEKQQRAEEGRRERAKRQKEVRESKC

Compound: CCCCC(C)=O [2-hexanone]
- IT0 [1, 2]: 401.00 ± 33.20 s
- IT50 ([1]; Table 3, 3.41 mg/mL): 74.42 ± 0.79 s

Compound: CCCCCCC(C)=O [2-octanone]
- IT0 [1, 2]: 555.00 ± 75.00 s
- IT50 ([1]; Table 3, 3.41 mg/mL): 81.45 ± 1.58 s

Compound: CCCC(C)=O [2-pentanone]
- IT0 ([1]; 3.41 mg/mL): greater than 24 h
- IT0 [1, 2]: No measurable
- IT50 ([1]; Table 3, 3.41 mg/mL): 390.60 ± 0.10 s

Compound: CCCCC(=O)CC [3-heptanone]
- IT0 [1, 2]: 258.00±11.47^b seconds
- IT50 ([1]; Table 3, 3.41 mg/mL): 40.82 ± 1.67 s

Compound: CCCCCC(=O)CC [3-octanone]
- IT0 [1, 2]: 722.50 ± 95.66 s
- IT50 ([1]; Table 3, 3.41 mg/mL): 117.10 ± 0.53 s

Compound: CCC(=O)CC [3-pentanone]
- IT0 [1, 2]: 765.00 ± 86.60 s
- IT50 ([1]; Table 3, 3.41 mg/mL): 230.30 ± 1.29 s

Compound: CCCC(=O)CCC [4-heptanone]
- IT0 [1, 2]: 283.57±16.89^b seconds
- IT50 ([1]; Table 3, 3.41 mg/mL): 45.24 ± 0.44 s

Compound: CCN(CC)CC(=O)Nc1c(C)cccc1C [lidocaine]
- IC50 (hNav1.6 channels; hNav1.6 IC50, Phasic Experiment): 299 µM
- IC50 (hNav1.6 channels; hNav1.6 IC50, Tonic Experiment): 1240 µM
- time to full recovery of locomotory pattern (wax moth larvae (WML); 0.81 mg injected, n = 5): 6.42 h
- effect of injection on large WML (wax moth larvae (WML); 1.63 mg injected, 12 cases): lethal effect
- IT0 (time required for 100% inhibition of the nCAP) ([1]; 1.41 mg/mL): 320.3 ± 14.96 s
- IT50 (time to inhibit nCAP amplitude to 50% of control) ([1]; 1.41 mg/mL): 32.23 ± 3.16 s
- IT0 (time required for 100% inhibition of the nCAP) ([1]; 2.28 mg/mL): 186.8 ± 8.07 s
- IT50 (time to inhibit nCAP amplitude to 50% of control) ([1]; 2.28 mg/mL): 30.9 ± 0.22 s
- IT0 (time required for 100% inhibition of the nCAP) ([1]; 3.41 mg/mL): 147.50 ± 9.96 s
- IT50 (time to inhibit nCAP amplitude to 50% of control) ([1]; 3.41 mg/mL): 27.11 ± 3.16 s
- IT0 (time required for 100% inhibition of the nCAP) ([1]; 10 mg/mL): 101.3 ± 2.16 s
- IT50 (time to inhibit nCAP amplitude to 50% of control) ([1]; 10 mg/mL): 12.0 ± 0.95 s
- IC50 ([1]; Rattus norvegicus, read-out: IC50 from concentration-response curves of the IT0 values): 337 µg/mL (≈ 1440 µM)
- recovery of nCAP amplitude after wash with normal saline ([1]; after elimination of nCAP, remained at this level for at least 24 h, n = 8): 95.5%
- effect on axonal membrane (rat sciatic nerve): disrupts the axonal membrane
